The test system of data set [1] is Staphylococcus aureus (ATCC25923). In words: Microdilution MIC assay (CLSI-based), S. aureus. Particulars: 20 hours incubation at 35-37° C., MHB; for MIC: Staphylococcus aureus, ATCC25923, 20 h, read-out: Minimum inhibitory concentration S. aureus ATCC25923. The format is cell-based. Put shortly: (§1)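 Broth microdilution per modified CLSI guidelines in Mueller Hinton broth, 200 μL, inoculum ca. 5×10^5 CFU/mL; compounds tested as salts, twofold dilutions from 0.2 mg/mL, in triplicate. MIC determined from OD at 620 nm after incubation.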

The test system of data set [2] is Enterococcus faecalis (ATCC29212). The data set is described as follows: Microdilution MIC assay (CLSI-based), E. faecalis. Particulars: 20 hours incubation at 35-37° C., MHB; for MIC: Enterococcus faecalis, ATCC29212, 20 h, read-out: Minimum inhibitory concentration E. faecalis ATCC29212. Format: cell-based. Put shortly: as §1
The test system of data set [3] is Escherichia coli (ATCC28922). In words: Microdilution MIC assay (CLSI-based), E. coli. The format is cell-based. Particulars: 20 hours incubation at 35-37° C., MHB; for MIC: Escherichia coli, ATCC28922, 20 h, read-out: Minimum inhibitory concentration E. coli ATCC28922. Put shortly: as §1
The test system of data set [4] is Pseudomonas aeruginosa (ATCC27853). The data set is described as follows: Microdilution MIC assay (CLSI-based), P. aeruginosa. Format: cell-based. The following applies: 20 hours incubation at 35-37° C., MHB; for MIC: Pseudomonas aeruginosa, ATCC27853, 20 h, read-out: Minimum inhibitory concentration P. aeruginosa ATCC27853. Put shortly: as §1
The test system of the next data set is CHO-K1 cells. The data set is described as follows: WST1 cytotoxicity test. The format is cell-based, Chinese hamster. The method in brief:
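CHO-K1 cells pre-cultured 24 h, then exposed 24 h at 37 °C to increasing compound concentrations. Viability read as WST-1 formazan absorbance at 450 nm after 20 min; dose-response fitted by nonlinear regression.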

Data set [5] concerns Escherichia coli (E. coli) persister cells. The data set is described as follows: Anti-persister activity test, persister cells. Format: cell-based. The following applies: for anti-persister activity (in words): E. coli persister cells, Table 8 conditions; for Persister cell survival rate 96 h: 4 hours treatment; for viability at 125 µM: read-out: Persister cell survival rate 96 h, concentration used 125 μM, 4 hours treatment. Here is the method:
(§2) Anti-persister activity test: Escherichia coli (E. coli) persister cells were generated and isolated as described by MARQUES, C. N. H. et al. (Applied and Environmental Microbiology 2014, Vol. 80, No. 22, pp. 6976-6991). E. coli persister cells were compared to E. coli non-persister cells. 1 mL persister or non-persister bacteria culture was added in a 1.5 mL microtube with each of the compounds to be tested or ciprofloxacin as a […], and incubated at 37° C. with 160 rpm shaking for 4 hours. After 4 hours treatment with the compounds, the microtubes were centrifuged at 3,500g for 5 minutes and the pellets were resuspended in 1 mL of fresh drug free RM broth (10 g/L M9 salt, 2% casamino acids, 1 mM MgCl2, 1% glycerol). Resuspended bacteria were then plated over LB agar plates and incubated at 37° C. Bacterial colonies were enumerated after 24, 48 and 96 hours to estimate the survival rate.

Data set [6] concerns E. coli non-persister cells. The data set is described as follows: Anti-persister activity test, non-persister cells. Format: cell-based, Escherichia coli. Particulars: for Non-persister cell survival rate 96 h: 4 hours treatment; for viability at 125 µM: read-out: Non-persister cell survival rate 96 h, concentration used 125 μM, 4 hours treatment. The method, then:
as §2

Where [7] appears, read: Cricetulus griseus, CHO-K1, WST1, as printed in Table 8, read-out: Toxicity IC50 CHO.
The mark [8] stands for this setting: WST1, 24 hours at 37° C., read-out: IC50 CHO.
[9] abbreviates: WST1, Table 8, read-out: Toxicity IC50 CHO.
Where [10] appears, read: Cricetulus griseus, CHO-K1, 24 h, WST1, 24 hours at 37° C., read-out: IC50 CHO.

The structures appear in SMILES notation. ≈ marks a conversion by molar mass, not a printed value. Where “and” joins values, the source holds several entries; their conditions need not be identical. Identical values can stand only once. Like-named read-outs stand apart in the source and are kept apart here. Marks after values point to notes of the source that are not given here.

Consider 7 compounds from patent US20260250312A1, “ANTIBACTERIAL COMPOUNDS ELIMINATING DORMANT BACTERIAL CELLS” (UNIVERSITÉ D'AIX-MARSEILLE, priority 2022, published 2026).

For `COC(=O)[C@H](NC(=O)CC[C@@H](C)[C@H]1CCC2C3C(CC[C@@]21C)[C@@]1(C)CC[C@H](NCCCNCCCN)C[C@H]1C[C@H]3O)C(C)C` (stereo partly drawn) [Compound S019, methyl ((4R)-4-((3S,5S,7R,10S,13R,17R)-3-((3-((3-aminopropyl)amino)propyl)amino)-7-hydroxy-10,13-dimethylhexadecahydro-1H-cyclopenta[a]phenanthren-17-yl)pentanoyl)-D-valinate], the “Minimum inhibitory concentration S. aureus ATCC25923” value in data set [1] was 6.25* μM and 4* μg/mL. The “Minimum inhibitory concentration E. faecalis ATCC29212” value in data set [2] was 25* μM and 16* μg/mL. Further, the “Minimum inhibitory concentration E. coli ATCC28922” value in data set [3] is 12.5* μM and 8* μg/mL. Further, the “Minimum inhibitory concentration P. aeruginosa ATCC27853” value in data set [4] is 12.5* μM and 8* μg/mL. In addition, in the data set with CHO-K1 cells (setting [7]), the IC50 is 97.1 µM. In the data set with CHO-K1 cells (WST1, 24 hours at 37° C.), the “IC50 CHO” value is 60.09 µg/mL (≈ 97.1 µM). Besides, in data set [5], the “anti-persister activity (in words)” value is recorded as “very potent anti-persister activity”. In data set [5] (concentration used 250 μM), the “Persister cell survival rate 96 h” value was found to be 0.0%. For the same compound, in data set [6] (concentration used 250 μM), the “Non-persister cell survival rate 96 h” value is reported as 4.0%.
Turning to `COC(=O)[C@H](NC(=O)CC[C@@H](C)[C@H]1CCC2C3C(CC[C@@]21C)[C@@]1(C)CC[C@H](NCCCNCCCN)C[C@H]1C[C@H]3O)C(C)C` (stereo partly drawn) [Compound S048, methyl ((4R)-4-((3S,5S,7R,10S,13R,17R)-3-((3-((3-aminopropyl)amino)propyl)amino)-7-hydroxy-10,13-dimethylhexadecahydro-1H-cyclopenta[a]phenanthren-17-yl)pentanoyl)-D-valinate], the “Minimum inhibitory concentration S. aureus ATCC25923” value in data set [1] is 6.25* μM and 4* μg/mL. Also, the “Minimum inhibitory concentration E. faecalis ATCC29212” value in data set [2] was 25* μM and 16* μg/mL. The “Minimum inhibitory concentration E. coli ATCC28922” value in data set [3] is 6.25* μM and 4* μg/mL. Moreover, the “Minimum inhibitory concentration P. aeruginosa ATCC27853” value in data set [4] is 12.5* μM and 8* μg/mL. The “IC50 CHO” value with CHO-K1 cells (WST1, 24 hours at 37° C.) worked out at 60.09 µg/mL (≈ 97.1 µM). The IC50 in the data set on CHO-K1 cells (setting [8]) and with CHO-K1 cells (setting [9]) was 97.1 µM in each case. In addition, the “anti-persister activity (in words)” value in data set [5] was “both anti-persister and anti-bacterial activities”. In addition, in data set [5] (concentration used 125 μM), the “Persister cell survival rate 96 h” value is given as 0.0%. Also, in data set [6] (concentration used 125 μM), the “Non-persister cell survival rate 96 h” value is on record as 0.0%.
Take `COC(=O)[C@H](NC(=O)CC[C@@H](C)[C@H]1CCC2C3C(CC[C@@]21C)[C@@]1(C)CC[C@H](NCCCNCCCN)C[C@H]1C[C@H]3O)C(C)C` (stereo partly drawn) [Compound S047, methyl ((4R)-4-((3S,5S,7R,10S,13R,17R)-3-((3-((3-aminopropyl)amino)propyl)amino)-7-hydroxy-10,13-dimethylhexadecahydro-1H-cyclopenta[a]phenanthren-17-yl)pentanoyl)-D-valinate]: in data set [1], the MIC was 6.25 µM and 4 µg/mL. In addition, the “Minimum inhibitory concentration E. faecalis ATCC29212” value in data set [2] was 12.5* μM and 8* μg/mL. For the same compound, in data set [3], the “Minimum inhibitory concentration E. coli ATCC28922” value is 12.5* μM and 8* μg/mL. In data set [4], the “Minimum inhibitory concentration P. aeruginosa ATCC27853” value was 12.5* μM and 8* μg/mL. Also, the “IC50 CHO” value in the data set with CHO-K1 cells (WST1, 24 hours at 37° C.) turned out to be 57.61 µg/mL (≈ 93.1 µM). In addition, the IC50 in the data set on CHO-K1 cells (setting [8]) and in the data set on CHO-K1 cells (setting [9]) was 93.1 µM throughout. The “anti-persister activity (in words)” value in data set [5] was “both anti-persister and anti-bacterial activities”. The viability at 125 µM in data set [5] (Escherichia coli, 4 h) came to 0%; in data set [6] (Escherichia coli, 4 h), 0%.
In the case of `COC(=O)[C@@H](NC(=O)CC[C@@H](C)[C@H]1CCC2C3C(CC[C@@]21C)[C@@]1(C)CC[C@H](NCCCNCCNCCCN)C[C@H]1C[C@H]3O)C(C)C` (stereo partly drawn) [Compound S013, methyl ((4R)-4-((3S,5S,7R,10S,13R,17R)-3-((3-((2-((3-aminopropyl)amino)ethyl)amino)propyl)amino)-7-hydroxy-10,13-dimethylhexadecahydro-1H-cyclopenta[a]phenanthren-17-yl)pentanoyl)-L-valinate], the MIC was 6.25 µM and 4 µg/mL in data set [1]; 12.5 µM and 8 µg/mL in data set [2]; 6.25 µM and 4 µg/mL in data set [3]; 25 µM and 16 µg/mL in data set [4]. In the data set on CHO-K1 cells, the “toxicity results (in words)” value was “good toxicity results”. The IC50 with CHO-K1 cells (setting [10]) is 96.3 µM and 63.7 µg/mL; in the data set on CHO-K1 cells (setting [7]), 96.3 µM. The “anti-persister activity (in words)” value in data set [5] is “both anti-persister and anti-bacterial activities”. Besides, the viability at 250 µM in data set [5] (Escherichia coli, 4 h, read-out: Persister cell survival rate 96 h, concentration used 250 μM, 4 hours treatment) is 0%; in data set [6] (Escherichia coli, 4 h, read-out: Non-persister cell survival rate 96 h, concentration used 250 μM, 4 hours treatment), 0%.
Turning to `COC(=O)[C@H](Cc1ccc(O)cc1)NC(=O)CC[C@@H](C)[C@H]1CCC2C3C(CC[C@@]21C)[C@@]1(C)CC[C@H](NCCCNCCNCCCN)C[C@H]1C[C@H]3O` (stereo partly drawn) [Compound S042, methyl ((4R)-4-((3S,5S,7R,10S,13R,17R)-3-((3-((2-((3-aminopropyl)amino)ethyl)amino)propyl)amino)-7-hydroxy-10,13-dimethylhexadecahydro-1H-cyclopenta[a]phenanthren-17-yl)pentanoyl)-L-tyrosinate], the MIC is 6.25 µM and 4 µg/mL in data set [1]; 25 µM and 16 µg/mL in data set [2]; 12.5 µM and 8 µg/mL in data set [3]; 25 µM and 16 µg/mL in data set [4]. The “toxicity results (in words)” value in the data set on CHO-K1 cells was “good toxicity results”. For the same compound, the IC50 in the data set on CHO-K1 cells (setting [10]) is 51.4 µM and 37.3 µg/mL; in the data set on CHO-K1 cells (setting [7]) it was 51.4 µM. Further, the “anti-persister activity (in words)” value in data set [5] is “not as good on persister cells”. Moreover, the viability at 125 µM in data set [5] (Escherichia coli, 4 h) turned out to be 0.1%; in data set [6] (Escherichia coli, 4 h) it was 0%. In addition, in data set [6] (E. coli non-persister cells, Table 8 conditions), the “activity on non-persister cells (in words)” value was “good activity on non-persister cells”.
For the compound `COC(=O)[C@H](Cc1ccccc1)NC(=O)CC[C@@H](C)[C@H]1CCC2C3C(CC[C@@]21C)[C@@]1(C)CC[C@H](NCCCNCCCCNCCCN)C[C@H]1C[C@H]3O` (stereo partly drawn) [Compound S014, methyl ((4R)-4-((3S,5S,7R,10S,13R,17R)-3-((3-((4-((3-aminopropyl)amino)butyl)amino)propyl)amino)-7-hydroxy-10,13-dimethylhexadecahydro-1H-cyclopenta[a]phenanthren-17-yl)pentanoyl)-L-phenylalaninate], the MIC in data set [1] is 3.12 µM and 2 µg/mL; in data set [2], 12.5 µM and 8 µg/mL; in data set [3] it was 6.25 µM and 4 µg/mL; in data set [4], 25 µM and 16 µg/mL. The “toxicity results (in words)” value with CHO-K1 cells is reported as “good toxicity results”. Further, the IC50 is 77.6 µM and 57.3 µg/mL with CHO-K1 cells (setting [10]); 77.6 µM in the data set on CHO-K1 cells (setting [7]). For the same compound, the “anti-persister activity (in words)” value in data set [5] was “both anti-persister and anti-bacterial activities”. Further, the viability at 125 µM was 0% in data set [5] (Escherichia coli, 4 h) and 0% in data set [6] (Escherichia coli, 4 h).
Consider `CC[C@@H](C)[C@H](NC(=O)CC[C@@H](C)[C@H]1CC[C@H]2[C@@H]3[C@H](O)C[C@@H]4C[C@@H](NCCCNCCCCNCCCN)CC[C@]4(C)[C@H]3CC[C@]12C)C(=O)OC` [Compound S044, methyl (2S,3R)-2-((4R)-4-((3S,5S,7R,10S,13R,17R)-3-((3-((4-((3-aminopropyl)amino)butyl)amino)propyl)amino)-7-hydroxy-10,13-dimethylhexadecahydro-1H-cyclopenta[a]phenanthren-17-yl)pentanamido)-3-methylpentanoate], for which the MIC in data set [1] is 6.25 µM and 4 µg/mL; in data set [2] it was 6.25 µM and 4 µg/mL; in data set [3], 6.25 µM and 4 µg/mL; in data set [4], 12.5 µM and 8 µg/mL. Moreover, the “toxicity results (in words)” value with CHO-K1 cells is reported as “good toxicity results”. For the same compound, the IC50 with CHO-K1 cells (setting [10]) is 52.4 µM and 36.9 µg/mL; with CHO-K1 cells (setting [7]), 52.4 µM. Besides, the “anti-persister activity (in words)” value in data set [5] was “both anti-persister and anti-bacterial activities”. Further, the viability at 62.5 µM in data set [5] (Escherichia coli, 4 h, read-out: Persister cell survival rate 96 h, concentration used 62.5 μM, 4 hours treatment) turned out to be 0%; in data set [6] (Escherichia coli, 4 h, read-out: Non-persister cell survival rate 96 h, concentration used 62.5 μM, 4 hours treatment) it was 0%.
